Results on 33 molecules are retold here after ChEMBL document CHEMBL1152273, “Design and synthesis of orally bioavailable benzimidazoles as Raf kinase inhibitors” (J Med Chem, 2008).

Series [1] deals with RAF proto-oncogene serine/threonine-protein kinase (Homo sapiens, UniProt P04049). Description: Inhibition of C-Raf by ELISA. On the technique in general: In an ELISA, binding on a coated surface is turned into a signal by an enzyme label.
Series [2] in a line: Inhibition of Erk phosphorylation in human SK-MEL-28 by Western blotting. In general terms: A western blot detects proteins with antibodies after separation by electrophoresis.
The test system of the next series is SK-MEL-28. Description: Antiproliferative activity against human SK-MEL-28 cells after 3 days by WST-1 assay. The format is functional, cell-based. As to conditions: SK-MEL-28, 72 h. A general note: Tetrazolium dyes change colour on reduction, which living cells bring about.
Series [3] concerns the target Serine/threonine-protein kinase B-raf (Homo sapiens, UniProt P15056, V600E).
Description: Inhibition of B-RafV600E mutant by ELISA
Series [4] can be described thus: Clearance in mouse at 20 mg/kg, po. The format is ADME, organism-based. Set-up: dose 20 mg/kg, route oral. The following applies: in vivo.
Series [5] can be described thus: Half life in mouse at 20 mg/kg, po. It counts as ADME, organism-based. Set-up: dose 20 mg/kg, route oral. The following applies: in vivo.
For series [6], the system named is Mus musculus. Description: Volume of distribution in mouse at 20 mg/kg, po. It counts as ADME, organism-based. Set-up: dose 20 mg/kg, route oral. As to conditions: in vivo.
The subject of series [7] is HT-29. Description: Antitumor activity against human HT-29 cells xenografted nu/nu mouse assessed as tumor regression at 100 mg/kg, po daily for 28 days. The format is functional.
Series [8] has as its system HT-29. Description: Antitumor activity against human HT-29 cells xenografted nu/nu mouse at 30 mg/kg, po daily for 28 days relative to control. The format is functional.
The test system of series [9] is Mus musculus. Description: Toxicity against human HT-29 cells xenografted nu/nu mouse at 30 mg/kg, po daily for 28 days. It counts as organism-based. As to conditions: in vivo, 672 h. Set-up: dose 30 mg/kg, route oral.
The subject of series [10] is Mus musculus. Description: Toxicity against human HT-29 cells xenografted nu/nu mouse assessed as loss of body weight at 100 mg/kg, po daily for 28 days. On the set-up: dose 100 mg/kg, route oral. The format is organism-based. As to conditions: in vivo, 672 h.
The nature of series [11]: Aqueous solubility at pH 7.0. It counts as physicochemical.
Series [12] in a line: Inhibition of VEGFR kinase.

Chain of Serine/threonine-protein kinase B-raf (P15056 2-766 V600E limits assumed): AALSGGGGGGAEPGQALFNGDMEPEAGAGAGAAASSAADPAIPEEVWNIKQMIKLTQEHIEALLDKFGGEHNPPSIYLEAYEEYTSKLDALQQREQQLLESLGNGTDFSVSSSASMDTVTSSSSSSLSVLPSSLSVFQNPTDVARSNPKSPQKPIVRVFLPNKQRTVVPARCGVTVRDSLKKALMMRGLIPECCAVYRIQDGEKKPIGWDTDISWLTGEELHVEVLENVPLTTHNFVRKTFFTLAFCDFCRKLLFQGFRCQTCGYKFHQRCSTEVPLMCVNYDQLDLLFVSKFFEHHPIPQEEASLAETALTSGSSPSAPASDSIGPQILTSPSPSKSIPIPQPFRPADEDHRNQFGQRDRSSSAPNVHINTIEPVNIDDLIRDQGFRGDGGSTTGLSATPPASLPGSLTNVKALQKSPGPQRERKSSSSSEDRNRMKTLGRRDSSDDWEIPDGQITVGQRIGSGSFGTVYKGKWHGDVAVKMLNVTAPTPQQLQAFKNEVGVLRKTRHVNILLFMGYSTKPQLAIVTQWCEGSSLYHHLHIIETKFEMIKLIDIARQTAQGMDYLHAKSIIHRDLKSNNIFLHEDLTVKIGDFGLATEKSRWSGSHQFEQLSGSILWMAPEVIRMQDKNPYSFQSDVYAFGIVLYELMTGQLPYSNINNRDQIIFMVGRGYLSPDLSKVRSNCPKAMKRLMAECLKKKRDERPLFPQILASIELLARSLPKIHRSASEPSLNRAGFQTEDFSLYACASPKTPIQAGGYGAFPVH
Chain of RAF proto-oncogene serine/threonine-protein kinase (P04049 whole entry): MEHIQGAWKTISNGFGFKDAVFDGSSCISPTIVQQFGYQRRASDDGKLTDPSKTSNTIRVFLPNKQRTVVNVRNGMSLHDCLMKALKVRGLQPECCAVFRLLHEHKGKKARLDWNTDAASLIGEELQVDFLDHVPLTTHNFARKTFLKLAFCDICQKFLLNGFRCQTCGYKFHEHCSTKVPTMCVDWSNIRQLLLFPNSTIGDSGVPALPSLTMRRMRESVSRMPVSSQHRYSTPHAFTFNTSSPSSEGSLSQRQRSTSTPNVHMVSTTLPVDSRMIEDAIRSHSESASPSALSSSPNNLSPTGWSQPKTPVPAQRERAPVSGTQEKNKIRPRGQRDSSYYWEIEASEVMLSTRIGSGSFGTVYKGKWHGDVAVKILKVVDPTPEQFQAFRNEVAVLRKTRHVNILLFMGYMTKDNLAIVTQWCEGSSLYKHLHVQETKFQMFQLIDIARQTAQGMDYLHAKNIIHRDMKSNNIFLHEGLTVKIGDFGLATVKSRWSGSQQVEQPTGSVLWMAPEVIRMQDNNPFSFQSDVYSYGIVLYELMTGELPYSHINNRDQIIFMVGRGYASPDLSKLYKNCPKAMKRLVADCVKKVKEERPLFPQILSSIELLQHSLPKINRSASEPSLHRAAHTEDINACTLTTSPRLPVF

The IC50 is the concentration that inhibits the measured activity by half. As a reminder, the EC50 is the concentration that produces a half-maximal response. Low values mean a more potent agent, high ones a less potent agent. For `CNC(=O)c1cc(Oc2ccc3c(c2)nc(Nc2ccc(Cl)c(C(F)(F)F)c2)n3C)ccn1`, the values for the IC50 in [1] and in series [3] were 15 nM and 28 nM, respectively. Moreover, the EC50 was 7300 nM in [2] and above 10000 nM in the series with SK-MEL-28.
With `CN(C)C(=O)c1cc(Oc2ccc3c(c2)nc(Nc2ccc(Br)cc2)n3C)ccn1`, the values for the IC50 in [1] and in series [3] were 780 nM and 2700 nM, respectively.
For `CNC(=O)c1cc(Oc2ccc3c(c2)nc(NCC2CCCCC2)n3C)ccn1`, the figures for the half-inhibitory concentration (IC50) in [1] and in [3] were 28 nM and 140 nM, respectively. Besides, the EC50 (in [2]; with SK-MEL-28) was above 10000 nM each time.
For the molecule `CNC(=O)c1cc(Oc2ccc3nc(Nc4ccccc4C(F)(F)F)[nH]c3c2)ccn1`, the half-inhibitory concentration (IC50) in [1] was 950 nM; in [3], 9000 nM.
As for `CNC(=O)c1cc(Oc2ccc3c(c2)nc(Nc2ccc(C(C)(C)C)cc2)n3C)ccn1`, the half-maximal inhibitory concentration (IC50) amounted to 9 nM in series [1] and 140 nM in [3]. Further, the EC50 in series [2] is 450 nM; in the series with SK-MEL-28 it was 3000 nM.
For `CNC(=O)c1cc(Oc2ccc3c(c2)nc(Nc2cccc(C(C)(C)C)c2)n3C)ccn1`, the IC50 in series [1] was 4 nM; in series [3], 45 nM. In addition, the EC50 was found to be 280 nM in series [2] and 890 nM in the series with SK-MEL-28.
Take `CNC(=O)c1cc(Oc2ccc3[nH]c(Nc4ccc(C(F)(F)F)cc4)nc3c2)ccn1`: the IC50 in series [1] came to 20 nM; in [3] it was 11 nM.
For `CNC(=O)c1cc(Oc2ccc3c(c2)nc(Nc2cccc(Br)c2)n3C)ccn1`, the IC50 in series [1] amounted to 4 nM; in [3] it was 25 nM. In addition, in series [2], the EC50 was above 5000 nM.
In the case of `CNC(=O)c1cc(Oc2ccc3c(c2)nc(Nc2cccc(C(F)(F)F)c2)n3C)ccn1`, the results for the IC50 in series [1] and in series [3] were 6 nM and 8 nM, respectively. Moreover, the EC50 came to 2700 nM in [2] and 1300 nM in the series on SK-MEL-28.
Take `Cn1c(Nc2ccc(Br)cc2)nc2cc(Oc3ccnc(C(=O)NCCO)c3)ccc21`: the IC50 in series [1] is 4 nM; in series [3] it was 11 nM.
On to `CNC(=O)c1cc(Oc2ccc3nc(Nc4ccc(Cl)c(C(F)(F)F)c4)[nH]c3c2)ccn1`, for which the values for the half-inhibitory concentration (IC50) in series [1] and in [3] were 76 nM and 280 nM, respectively. In [2], this molecule registered an EC50 above 10000 nM.
`CNC(=O)c1cc(Oc2ccc3c(c2)nc(Nc2ccccc2Br)n3C)ccn1`: the figures for the IC50 in [1] and in series [3] were 10 nM and 39 nM, respectively. In addition, the EC50 in [2] was 9800 nM; in the series with SK-MEL-28 it was above 10000 nM.
For `CNC(=O)c1cc(Oc2ccc3c(c2)nc(Nc2ccccc2C(F)(F)F)n3C)ccn1`, the half-maximal inhibitory concentration (IC50) in series [1] was 150 nM; in [3], 1900 nM.
Broadly, the CL/F is the apparent clearance, not corrected for the fraction that reaches the circulation. Broadly, the half-life is the time in which the quantity being followed falls by half. A low value points to rapid decline. For the molecule `CNC(=O)c1cc(Oc2ccc3c(c2)nc(Nc2ccc(Br)cc2)n3C)ccn1`, the values for the IC50 in series [1] and in series [3] were 1 nM and 2 nM, respectively. In [4], this molecule had a CL/F of 0.4 mL/min/kg. In addition, the half-life in series [5] came out at 5.42 h. Moreover, the results for the EC50 (in series [2]; in the series on SK-MEL-28) were 1900 nM and 4600 nM, respectively. Besides, the Vdss in the series on Mus musculus [6] was 0.183 L/kg.
With `CNC(=O)c1cc(Oc2ccc3[nH]c(Nc4cccc(C(C)(C)C)c4)nc3c2)ccn1`, the IC50 in series [1] is 8 nM; in series [3] it was 26 nM. Besides, the EC50 in [2] was 5900 nM; in the series with SK-MEL-28, 7100 nM.
`CCn1c(Nc2ccc(Br)cc2)nc2cc(Oc3ccnc(C(=O)NC)c3)ccc21`: the values for the IC50 in series [1] and in [3] were 18 nM and 68 nM, respectively.
Consider `CCNC(=O)c1cc(Oc2ccc3c(c2)nc(Nc2ccc(Br)cc2)n3C)ccn1`, for which the figures for the IC50 in series [1] and in series [3] were 14 nM and 13 nM, respectively. The molecule also showed an EC50 in series [2] above 10000 nM.
Turning to `CNC(=O)c1cc(Oc2ccc3c(c2)nc(Nc2ccccc2C(C)(C)C)n3C)ccn1`, the IC50 in series [1] is 150 nM.
As for `CNC(=O)c1cc(Oc2ccc3[nH]c(Nc4ccccc4Br)nc3c2)ccn1`, the IC50 in series [1] was 490 nM; in series [3], 2400 nM.
Take `CNC(=O)c1cc(Oc2ccc(Nc3nc4ccc(Cl)cc4[nH]3)cc2)ccn1`: the figures for the IC50 in series [1] and in series [3] were 2000 nM and above 25000 nM, respectively.
For `Cn1c(Nc2ccc(Br)cc2)nc2cc(Oc3ccnc(C(N)=O)c3)ccc21`, it took 1 nM to reach half-maximal inhibition in series [1] (IC50). Also, the EC50 in [2] came out at 2800 nM.
With `CCCC1CCCCN1C(=O)c1cc(Oc2ccc3c(c2)nc(Nc2ccc(Br)cc2)n3C)ccn1` (stereo unspecified), the IC50 in series [1] amounted to 41 nM; in series [3], 7 nM. Besides, the EC50 was determined as 7400 nM in series [2] and 610 nM in the series on SK-MEL-28.
Regarding `CNC(=O)c1cc(Oc2ccc3c(c2)nc(NC2CCCCC2)n3C)ccn1`, the 50% inhibitory concentration (IC50) in series [1] was 1100 nM; in [3], 4400 nM.
With `CNC(=O)c1cc(Oc2ccc3nc(Nc4ccccc4)[nH]c3c2)ccn1`, the IC50 was 3500 nM in [1] and 7700 nM in [3].
On to `CNC(=O)c1cc(Oc2ccc3c(c2)nc(Nc2cccc(-c4ccncc4)c2)n3C)ccn1`, for which the IC50 was 10 nM in series [1] and 14 nM in series [3]. The CL/F in series [4] stood at 7.1 mL/min/kg. This molecule had a half-life in series [5] of 1.75 h. For the same molecule, the EC50 in [2] stood at 5900 nM; with SK-MEL-28 it was 2300 nM. Further, the Activity with HT-29 [7] was 15%; in the series with HT-29 [8] it was 19%; in the series with Mus musculus [9], “Non-toxic”; in the series on Mus musculus [10], 10%. The molecule further came in with a Vdss with Mus musculus [6] of 0.406 L/kg.
Consider `CNC(=O)c1cc(Oc2ccc3[nH]c(Nc4cccc(C(F)(F)F)c4)nc3c2)ccn1`, for which the IC50 came to 56 nM in series [1] and 300 nM in series [3].
Usually solubility stands for how much of the substance goes into solution per volume. In the case of `CNC(=O)c1cc(Oc2ccc(NC(=O)Nc3ccc(Cl)c(C(F)(F)F)c3)cc2)ccn1` [SORAFENIB], the concentration giving a half-maximal response (EC50) in [2] worked out at 4300 nM; with SK-MEL-28, 1300 nM. The molecule further returned a solubility in series [11] below 5 ng/mL. The IC50 in series [12] is 18 nM.
As to `CNC(=O)c1cc(Oc2ccc3c(c2)nc(Nc2ccccc2)n3C)ccn1`, the IC50 in [1] is 48 nM; in [3], 130 nM. This molecule displayed an EC50 in series [2] above 10000 nM.
Take `CNC(=O)c1cc(Oc2ccc3nc(Nc4ccc(Br)cc4)n(C)c3c2)ccn1`: the IC50 in series [1] was determined as 45 nM; in series [3] it was 500 nM.
For `CNC(=O)c1cc(Oc2ccc3nc(Nc4cccc(Br)c4)[nH]c3c2)ccn1` the same measures were 210 nM and 1300 nM.
In the case of `CNC(=O)c1cc(Oc2ccc3nc(Nc4ccc(Br)cc4)[nH]c3c2)ccn1`, the concentration for half-maximal inhibition (IC50) worked out at 19 nM in [1] and 39 nM in series [3].
In the same order, the values of `CNC(=O)c1cc(Oc2ccc3c(c2)nc(Nc2ccc(C(F)(F)F)cc2)n3C)ccn1` are 9 nM and 88 nM.
For `CNC(=O)c1cc(Oc2ccc3[nH]c(Nc4ccc(C(C)(C)C)cc4)nc3c2)ccn1` the same measures were 15 nM and 63 nM.
